According to patent publication US6525001B1, “Substituted pyrimidine and pyridine herbicides” (Mid-American Commercialization Corporation, priority 1997, dated 2003):

Key:
Assay in all cases: Test B pre-/postemergence
Assay type in all cases: in vivo
Design in all cases: key: 0 is no effect; 10 is complete control
[1] = tested on: wheat (Triticum aestivum)
In short: (§1)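 Scored visually 0 (none) to 10 (complete control) against untreated plants after twelve to sixteen greenhouse days. Test chemicals, formulated in surfactant-containing non-phytotoxic solvent, applied to soil after planting and, separately, onto 1- to 4-leaf (2–18 cm) plants.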

[2] = tested on: soybean (Glycine max)
In short: as §1

[3] = tested on: cocklebur (Xanthium strumarium)
In short: as §1

[4] = tested on: sugar beet (Beta vulgaris)
In short: as §1

[5] = tested on: giant foxtail (Setaria faberii)
In short: as §1

[6] = tested on: velvetleaf (Abutilon theophrasti)
In short: as §1

[7] = tested on: pigweed (Amaranthus retroflexus)
In short: as §1

[8] = tested on: bedstraw (Galium aparine)
In short: as §1

[9] = tested on: corn (Zea mays)
In short: as §1

[10] = tested on: blackgrass (Alopecurus myosuroides)
In short: as §1

[11] = tested on: broadleaf signalgrass (Brachiaria decumbens)
In short: as §1

[12] = tested on: momingglory (Ipomoea hederacea)
In short: as §1

[13] = tested on: rape (Brassica napus)
In short: as §1

[14] = tested on: crabgrass (Digitaria sanguinalis)
In short: as §1

Cc1cnc(-c2ccc(C(F)(F)F)cc2)nc1C(Cl)c1cccc(C(F)(F)F)c1 (racemic) [Compound 21]
6: Plant response rating, Soybean ([2]; Rate 62 g/ha, Postemergence) | Plant response rating, Soybean ([2]; Rate 125 g/ha, Postemergence) | Plant response rating, Soybean ([2]; Rate 250 g/ha, Postemergence) | Plant response rating, Blackgrass ([10]; Rate 250 g/ha, Postemergence) | Plant response rating, Morningglory ([12]; Rate 250 g/ha, Preemergence) | Plant response rating, Crabgrass ([14]; Rate 125 g/ha, Postemergence) | Crabgrass plant response rating ([14]; Rate 125 g/ha, Preemergence)
2: Plant response rating, Wheat ([1]; Rate 250 g/ha, Preemergence) | B. signalgrass plant response rating ([11]; Rate 62 g/ha, Preemergence) | Rape plant response rating ([13]; Rate 62 g/ha, Preemergence)
3: Plant response rating, Corn ([9]; Rate 62 g/ha, Postemergence) | Plant response rating, Corn ([9]; Rate 125 g/ha, Postemergence) | Plant response rating, Blackgrass ([10]; Rate 62 g/ha, Postemergence) | Blackgrass plant response rating ([10]; Rate 125 g/ha, Preemergence) | Plant response rating, B. signalgrass ([11]; Rate 62 g/ha, Postemergence) | B. signalgrass plant response rating ([11]; Rate 125 g/ha, Preemergence) | Rape plant response rating ([13]; Rate 125 g/ha, Preemergence) | Plant response rating, Crabgrass ([14]; Rate 62 g/ha, Postemergence) | Crabgrass plant response rating ([14]; Rate 62 g/ha, Preemergence)
4: Plant response rating, Wheat ([1]; Rate 62 g/ha, Postemergence) | Plant response rating, Wheat ([1]; Rate 125 g/ha, Postemergence) | Velvetleaf plant response rating ([6]; Rate 62 g/ha, Preemergence) | Plant response rating, Corn ([9]; Rate 250 g/ha, Postemergence) | Plant response rating, Blackgrass ([10]; Rate 125 g/ha, Postemergence) | Plant response rating, B. signalgrass ([11]; Rate 125 g/ha, Postemergence)
10: Plant response rating, Sugarbeets ([4]; Rate 250 g/ha, Postemergence) | Plant response rating, Sugarbeets ([4]; Rate 250 g/ha, Preemergence) | Plant response rating, Velvetleaf ([6]; Rate 250 g/ha, Preemergence) | Plant response rating, Redroot pigweed ([7]; Rate 250 g/ha, Postemergence) | Plant response rating, Rape ([13]; Rate 125 g/ha, Postemergence) | Plant response rating, Rape ([13]; Rate 250 g/ha, Postemergence) | Plant response rating, Crabgrass ([14]; Rate 250 g/ha, Preemergence)
9: Plant response rating, Sugarbeets ([4]; Rate 62 g/ha, Postemergence) | Plant response rating, Sugarbeets ([4]; Rate 125 g/ha, Postemergence) | Plant response rating, Giant foxtail ([5]; Rate 250 g/ha, Postemergence) | Plant response rating, Giant foxtail ([5]; Rate 250 g/ha, Preemergence) | Plant response rating, Velvetleaf ([6]; Rate 250 g/ha, Postemergence) | Plant response rating, Redroot pigweed ([7]; Rate 125 g/ha, Postemergence) | Plant response rating, Redroot pigweed ([7]; Rate 250 g/ha, Preemergence) | Plant response rating, Bedstraw ([8]; Rate 125 g/ha, Postemergence) | Plant response rating, Bedstraw ([8]; Rate 250 g/ha, Postemergence) | Plant response rating, Morningglory ([12]; Rate 250 g/ha, Postemergence) | Plant response rating, Rape ([13]; Rate 62 g/ha, Postemergence)
7: Plant response rating, Cocklebur ([3]; Rate 62 g/ha, Postemergence) | Sugarbeets plant response rating ([4]; Rate 62 g/ha, Preemergence) | Plant response rating, Velvetleaf ([6]; Rate 62 g/ha, Postemergence) | Redroot pigweed plant response rating ([7]; Rate 62 g/ha, Preemergence) | Plant response rating, B. signalgrass ([11]; Rate 250 g/ha, Postemergence)
8: Plant response rating, Cocklebur ([3]; Rate 125 g/ha, Postemergence) | Plant response rating, Cocklebur ([3]; Rate 250 g/ha, Postemergence) | Sugarbeets plant response rating ([4]; Rate 125 g/ha, Preemergence) | Plant response rating, Giant foxtail ([5]; Rate 125 g/ha, Postemergence) | Giant foxtail plant response rating ([5]; Rate 125 g/ha, Preemergence) | Plant response rating, Velvetleaf ([6]; Rate 125 g/ha, Postemergence) | Velvetleaf plant response rating ([6]; Rate 125 g/ha, Preemergence) | Plant response rating, Redroot pigweed ([7]; Rate 62 g/ha, Postemergence) | Redroot pigweed plant response rating ([7]; Rate 125 g/ha, Preemergence) | Plant response rating, Bedstraw ([8]; Rate 250 g/ha, Preemergence) | Plant response rating, B. signalgrass ([11]; Rate 250 g/ha, Preemergence) | Plant response rating, Morningglory ([12]; Rate 62 g/ha, Postemergence) | Plant response rating, Morningglory ([12]; Rate 125 g/ha, Postemergence) | Plant response rating, Crabgrass ([14]; Rate 250 g/ha, Postemergence)
0: Wheat plant response rating ([1]; Rate 62 g/ha, Preemergence) | Wheat plant response rating ([1]; Rate 125 g/ha, Preemergence) | Soybean plant response rating ([2]; Rate 62 g/ha, Preemergence) | Soybean plant response rating ([2]; Rate 125 g/ha, Preemergence) | Plant response rating, Soybean ([2]; Rate 250 g/ha, Preemergence) | Cocklebur plant response rating ([3]; Rate 62 g/ha, Preemergence) | Cocklebur plant response rating ([3]; Rate 125 g/ha, Preemergence) | Plant response rating, Cocklebur ([3]; Rate 250 g/ha, Preemergence) | Bedstraw plant response rating ([8]; Rate 62 g/ha, Preemergence) | Corn plant response rating ([9]; Rate 62 g/ha, Preemergence) | Corn plant response rating ([9]; Rate 125 g/ha, Preemergence)
5: Plant response rating, Wheat ([1]; Rate 250 g/ha, Postemergence) | Giant foxtail plant response rating ([5]; Rate 62 g/ha, Preemergence) | Plant response rating, Bedstraw ([8]; Rate 62 g/ha, Postemergence) | Plant response rating, Blackgrass ([10]; Rate 250 g/ha, Preemergence) | Plant response rating, Rape ([13]; Rate 250 g/ha, Preemergence)
1: Plant response rating, Giant foxtail ([5]; Rate 62 g/ha, Postemergence) | Bedstraw plant response rating ([8]; Rate 125 g/ha, Preemergence) | Plant response rating, Corn ([9]; Rate 250 g/ha, Preemergence) | Blackgrass plant response rating ([10]; Rate 62 g/ha, Preemergence) | Morningglory plant response rating ([12]; Rate 62 g/ha, Preemergence) | Morningglory plant response rating ([12]; Rate 125 g/ha, Preemergence)
